Results published in patent US20100056468A1, “Pyrimidine Derivatives As Anticancer Agents” (University Health Network, priority 2007, published 2010).

Key:
Assay in all cases: In vitro cell proliferation assay (WST.1, Table 5)
[1] = test system: COLO205; assay type: cell-based; details: Homo sapiens, COLO 205, 72 h; COLO205, day 3
Experimental: (§1) These cell lines were grown in Iscove's MDM supplemented with 5% fetal calf serum (FCS), 50 μM 2-mercaptoethanol, 100 μg/ml penicillin, and 100 μg/ml streptomycin. Cell lines growing in suspension were maintained at 0.5-1.5×10^6 cell/ml, while adherent cell lines were maintained at subconfluent densities.
(§2) Cell lines were seeded in triplicate at 10^4 cells/100 μl in 96-well plates. Peripheral blood mononuclear cells were seeded in triplicate at 10^5 cells/100 μl in 96-well plate. Different test compounds were added immediately at final concentrations ranging between 0 to 100 μM. All compounds were dissolved in sterile deionized water, so water was added to the control wells. On day 3, WST.1 assay (Roche) was used to measure the effect of different test compounds on cell growth. WST.1 assay is a calorimetric assay for the nonradioactive quantification of cell proliferation, cell viability, and cytotoxicity. The assay was performed according to manufacturer's instructions (Roche). It relies on the cleavage by cellular enzymes of WST.1 (water soluble tetrazolium salt: 4-[3-(4-iodophenyl)-2-(4-nitrophenyl)-2H-5-tetrazolio]-1,3-benzene disulfonate) to formazan. The amount of formazan dye formed correlates to the number of metabolically active cells in the culture and is readily read in an ELISA microplate reader using an absorbance wavelength of 440 nm. These OD values are plotted against concentrations of different compounds and IC50 is determined for each compound.

[2] = test system: CCD967; assay type: cell-based; details: Homo sapiens, CCD-967, 72 h; CCD967 normal skin line, day 3
Experimental: as §1, §2

[3] = test system: MCF7; assay type: cell-based; details: Homo sapiens, 72 h; MCF7, day 3
Experimental: as §1, §2

[4] = test system: T47D; assay type: cell-based; details: Homo sapiens, 72 h, day 3
Experimental: as §1, §2

[5] = test system: OCI-My-2; assay type: cell-based; details: Homo sapiens, 72 h; OCI-My-2, day 3
Experimental: as §1, §2

[6] = test system: HS58T; assay type: cell-based; details: Homo sapiens, 72 h, day 3
Experimental: as §1, §2

[7] = test system: MDA468; assay type: cell-based; details: Homo sapiens, 72 h; MDA468, day 3
Experimental: as §1, §2

[8] = test system: OCI-AML-2; assay type: cell-based; details: Homo sapiens, OCI-AML2, 72 h; OCI-AML-2, day 3
Experimental: as §1, §2

[9] = test system: PC3; assay type: cell-based; details: Homo sapiens, PC-3, 72 h; PC3, day 3
Experimental: as §1, §2

[10] = test system: SKW3; assay type: cell-based; details: Homo sapiens, 72 h; SKW3, day 3
Experimental: as §1, §2

[11] = test system: OCI-Ly-7; assay type: cell-based; details: Homo sapiens, OCI-Ly7, 72 h; OCI-Ly-7, day 3
Experimental: as §1, §2

[12] = test system: OCVR4; assay type: cell-based; details: Homo sapiens, 72 h; OCVR4, day 3
Experimental: as §1, §2

[13] = test system: SNB19; assay type: cell-based; details: Homo sapiens, SNB-19, 72 h; SNB19, day 3
Experimental: as §1, §2

[14] = test system: OCI-AML-1; assay type: cell-based; details: Homo sapiens, 72 h; OCI-AML-1, day 3
Experimental: as §1, §2

[15] = test system: LOX; assay type: cell-based, human; details: Homo sapiens, 72 h, day 3
Experimental: as §1, §2

`N#Cc1cc(=O)[nH]c(=O)n1[C@@H]1O[C@H](CO)C(O)C1O` (stereo partly drawn) was tested, and the IC50 [1] was greater than 50 µM, the IC50 [2] was greater than 50 µM and the IC50 [3] was greater than 50 µM. For the same compound, the IC50 [4] was greater than 50 µM, the IC50 [5] was greater than 50 µM and the IC50 [6] was greater than 50 µM. For the same compound, the IC50 [7] was greater than 50 µM, the IC50 [8] was greater than 50 µM and the IC50 [9] was greater than 50 µM. It also gave an IC50 [10] greater than 50 µM, an IC50 [11] greater than 50 µM and an IC50 [12] greater than 50 µM. The IC50 [13] was greater than 50 µM, the IC50 [14] was greater than 50 µM and the IC50 [15] was greater than 50 µM.
With `O=c1cc(I)n([C@@H]2O[C@H](CO)C(O)C2O)c(=O)[nH]1` (stereo partly drawn) the IC50 [1] was greater than 50 µM, the IC50 [2] was greater than 50 µM and the IC50 [3] was greater than 50 µM. For the same compound, the IC50 [4] was greater than 50 µM, the IC50 [5] was 27.8 µM and the IC50 [6] was greater than 50 µM. The IC50 [7] was greater than 50 µM, the IC50 [8] was greater than 50 µM and the IC50 [9] was greater than 50 µM. For the same compound, the IC50 [10] was 18.9 µM, the IC50 [11] was greater than 50 µM and the IC50 [12] was greater than 50 µM. For the same compound, the IC50 [13] was greater than 50 µM, the IC50 [14] was 15.3 µM and the IC50 [15] was greater than 50 µM.
Work on `CCOC(=O)c1cc(=O)[nH]c(=O)n1[C@@H]1O[C@H](CO)C(O)C1O` (stereo partly drawn) yielded an IC50 [1] greater than 50 µM, an IC50 [2] greater than 50 µM and an IC50 [3] greater than 50 µM. It also gave an IC50 [4] greater than 50 µM, an IC50 [5] of 42.3 µM and an IC50 [6] greater than 50 µM. The IC50 [7] was greater than 50 µM, the IC50 [8] was greater than 50 µM and the IC50 [9] was greater than 50 µM. It also gave an IC50 [10] greater than 50 µM, an IC50 [11] greater than 50 µM and an IC50 [12] greater than 50 µM. For the same compound, the IC50 [13] was greater than 50 µM, the IC50 [14] was greater than 50 µM and the IC50 [15] was greater than 50 µM.
For `[N-]=[N+]=Nc1cc(=O)[nH]c(=O)n1[C@@H]1O[C@H](CO)C(O)C1O` (stereo partly drawn), the IC50 [1] was greater than 50 µM, the IC50 [2] was greater than 50 µM and the IC50 [3] was greater than 50 µM. For the same compound, the IC50 [4] was greater than 50 µM, the IC50 [5] was greater than 50 µM and the IC50 [6] was greater than 50 µM. For the same compound, the IC50 [7] was greater than 50 µM, the IC50 [8] was greater than 50 µM and the IC50 [9] was greater than 50 µM. For the same compound, the IC50 [10] was greater than 50 µM, the IC50 [11] was greater than 50 µM and the IC50 [12] was greater than 50 µM. It also gave an IC50 [13] greater than 50 µM, an IC50 [14] greater than 50 µM and an IC50 [15] greater than 50 µM.
For `Nc1cc(=O)[nH]c(=O)n1[C@@H]1O[C@H](CO)C(O)C1O` (stereo partly drawn), the IC50 [1] was greater than 50 µM, the IC50 [2] was greater than 50 µM and the IC50 [3] was greater than 50 µM. For the same compound, the IC50 [4] was greater than 50 µM, the IC50 [5] was greater than 50 µM and the IC50 [6] was greater than 50 µM. The IC50 [7] was greater than 50 µM, the IC50 [8] was greater than 50 µM and the IC50 [9] was greater than 50 µM. The IC50 [10] was greater than 50 µM, the IC50 [11] was greater than 50 µM and the IC50 [12] was greater than 50 µM. For the same compound, the IC50 [13] was greater than 50 µM, the IC50 [14] was greater than 50 µM and the IC50 [15] was greater than 50 µM.
With `CC(=O)OCC1OC(n2c(I)cc(=O)[nH]c2=O)C(O)C1O` (stereo not drawn) the IC50 [1] was greater than 50 µM, the IC50 [2] was greater than 50 µM and the IC50 [3] was 4.4 µM. The IC50 [4] was greater than 50 µM, the IC50 [5] was 1.3 µM and the IC50 [6] was greater than 50 µM. For the same compound, the IC50 [7] was greater than 50 µM, the IC50 [8] was 11.7 µM and the IC50 [9] was greater than 50 µM. It also gave an IC50 [10] of 1.6 µM, an IC50 [11] of 36.2 µM and an IC50 [12] greater than 50 µM. It also gave an IC50 [13] greater than 50 µM, an IC50 [14] of 15.2 µM and an IC50 [15] of 1.1 µM.
For `Cc1cc(=O)[nH]c(=O)n1C1OC(CO)C(O)C1O` (stereo not drawn), the IC50 [1] was greater than 50 µM, the IC50 [2] was greater than 50 µM and the IC50 [3] was greater than 50 µM. It also gave an IC50 [4] greater than 50 µM, an IC50 [5] greater than 50 µM and an IC50 [6] greater than 50 µM. The IC50 [7] was greater than 50 µM, the IC50 [8] was greater than 50 µM and the IC50 [9] was greater than 50 µM. For the same compound, the IC50 [10] was greater than 50 µM, the IC50 [11] was greater than 50 µM and the IC50 [12] was greater than 50 µM. It also gave an IC50 [13] greater than 50 µM, an IC50 [14] greater than 50 µM and an IC50 [15] greater than 50 µM.
Work on `O=c1[nH]c(=O)n([C@@H]2O[C@H](CO)C(O)C2O)c(I)c1Br` (stereo partly drawn) yielded an IC50 [1] greater than 50 µM, an IC50 [2] greater than 50 µM and an IC50 [3] greater than 50 µM. The IC50 [4] was greater than 50 µM, the IC50 [5] was greater than 50 µM and the IC50 [6] was greater than 50 µM. The IC50 [7] was greater than 50 µM, the IC50 [8] was greater than 50 µM and the IC50 [9] was greater than 50 µM. The IC50 [10] was greater than 50 µM, the IC50 [11] was greater than 50 µM and the IC50 [12] was greater than 50 µM. It also gave an IC50 [13] greater than 50 µM, an IC50 [14] greater than 50 µM and an IC50 [15] greater than 50 µM.
Compound `CNc1cc(=O)[nH]c(=O)n1C1OC(CO)C(O)C1O` (stereo not drawn) has an IC50 [1] greater than 50 µM, an IC50 [2] greater than 50 µM and an IC50 [3] greater than 50 µM. It also gave an IC50 [4] greater than 50 µM, an IC50 [5] greater than 50 µM and an IC50 [6] greater than 50 µM. The IC50 [7] was greater than 50 µM, the IC50 [8] was greater than 50 µM and the IC50 [9] was greater than 50 µM. It also gave an IC50 [10] greater than 50 µM, an IC50 [11] greater than 50 µM and an IC50 [12] greater than 50 µM. The IC50 [13] was greater than 50 µM, the IC50 [14] was greater than 50 µM and the IC50 [15] was greater than 50 µM.
With `CN(C)c1cc(=O)[nH]c(=O)n1C1OC(CO)C(O)C1O` (stereo not drawn) the IC50 [1] was greater than 50 µM, the IC50 [2] was greater than 50 µM and the IC50 [3] was greater than 50 µM. For the same compound, the IC50 [4] was greater than 50 µM, the IC50 [5] was greater than 50 µM and the IC50 [6] was greater than 50 µM. The IC50 [7] was greater than 50 µM, the IC50 [8] was greater than 50 µM and the IC50 [9] was greater than 50 µM. The IC50 [10] was greater than 50 µM, the IC50 [11] was greater than 50 µM and the IC50 [12] was greater than 50 µM. It also gave an IC50 [13] greater than 50 µM, an IC50 [14] greater than 50 µM and an IC50 [15] greater than 50 µM.
`Cc1cc(=O)[nH]c(=O)n1C1CC(O)C(CO)O1` (stereo not drawn) showed an IC50 [3] greater than 50 µM, an IC50 [5] greater than 50 µM and an IC50 [7] greater than 50 µM. It also gave an IC50 [8] greater than 50 µM, an IC50 [10] greater than 50 µM and an IC50 [11] greater than 50 µM. The IC50 [14] was greater than 50 µM and the IC50 [15] was greater than 50 µM.
For `O=C1C/C(=N\O)N(C2OC(CO)C(O)C2O)C(=O)N1` (stereo not drawn), the IC50 [3] was greater than 50 µM, the IC50 [5] was greater than 50 µM and the IC50 [7] was greater than 50 µM. The IC50 [8] was greater than 50 µM, the IC50 [10] was greater than 50 µM and the IC50 [11] was greater than 50 µM. It also gave an IC50 [14] greater than 50 µM and an IC50 [15] greater than 50 µM.
For `O=Cc1cc(=O)[nH]c(=O)n1C1OC(CO)C(O)C1O` (stereo not drawn), the IC50 [3] was greater than 50 µM, the IC50 [5] was greater than 50 µM and the IC50 [7] was greater than 50 µM. For the same compound, the IC50 [8] was greater than 50 µM, the IC50 [10] was greater than 50 µM and the IC50 [11] was greater than 50 µM. For the same compound, the IC50 [14] was greater than 50 µM and the IC50 [15] was greater than 50 µM.
`O=c1[nH]cc(F)c(=O)[nH]1` [5-Fluoro-uracil, reference compound] showed an IC50 [8] of 1.6 µM, an IC50 [10] of 2.1 µM and an IC50 [14] of 1 µM.
